Results from patent US8575116B1, “Polyacetylenic compounds for protecting against pancreatic islet atrophy” (Academia Sinica, priority 2010, dated 2013).

What was measured:
3T3-L1 cells = assay type: cell-based, mouse; settings: differentiating 3T3-L1 cells; glimepiride 10 μM, rosiglitazone 1 μM, cytopiloyne 50 μM
PKCα = PKCα translocation and phosphorylation (Western blot) in RIN-m5F cells; assay type: cell-based, rat; settings: PMA 1 μM, glucose 16.7 mM
Description: FIGS. 5A-D show the effects of cytopiloyne on calcium mobilization, DAG generation and PKCa activation. (A) After Fura 2-AM loading, RIN-m5F cells were stimulated with 16.7 mM glucose (HG) and cytopiloyne at 7, 14 and 28 μM. Level of intracellular calcium, as shown by the 340/380 nm ratio, was detected using a fluorescence spectrophotometer. (B) RIN-m5F cells were pulsed with ^3H-myristic acid (5 Cim1^−1) for 16 hours. After washing, the cells were stimulated with glucose, cytopiloyne, PMA and glimepiride. Total lipids were separated on a silica thin layer plate. DAG and cholesterol were visualized with iodine vapor and identified by their standards. (C) RIN-m5F cells were incubated with vehicle (Mock), cytopiloyne (CP, 3, 7 and 14 μM), PMA (1 μM) and 16.7 mM (HG). Membrane or cytosolic proteins were subjected to Western blot with anti-PKCα and anti-Actin antibodies. (D) RIN-m5F cells were incubated with vehicle (Mock), cytopiloyne (CP 7 μM) and PMA (1 μM). After lysis, total lystaes were subjected to Western blot with anti-PKCα, anti-phospho-PKCα and anti-Actin antibodies.

db/db mice = assay: Prophylaxis of diabetes in diabetes-free db/db mice; assay type: in vivo, mouse; settings: 0.5 mgkg^−1 daily for 4 weeks, diabetes-free db/db mice aged 4 weeks
Description: FIGS. 2A-B show the prophylactic effect of cytopiloyne in db/db mice. […] Postprandial blood glucose levels in these mice were measured. (B) Blood insulin levels from the mice of […] were measured. Results from 3 independent experiments are expressed as mean±SEM, and P<0.05 was considered to be statistically significant (*).
After 0.5 h, the levels of postprandial blood sugar and insulin from the mice were monitored for additional 4 h. For continued administration, diabetic db/db males were grouped and tube-fed with vehicle, cytopiloyne (0.5 or 2.5 mgkg^−1 day^−1) or glimepiride (2.5 mg kg^−1 day^−1) for the indicated time, while levels of blood sugar, insulin, and glycosylated HbA1c, and glucose tolerance in these mice were determined. To evaluate the prophylaxis of diabetes, diabetes-free db/db mice at 4 weeks of age were tube-fed with vehicle or cytopiloyne (CP, 0.5 mgkg^−1), once a day, for 4 weeks. Unless indicated otherwise, the mice were fasted for 16 h, then Postprandial blood glucose and insulin in these mice were measured.

HIT-T15 cells = assay: Insulin secretion of β-cell line with PMA, GF109203X and cytopiloyne (ELISA); assay type: cell-based, rat; settings: FIG. 6A; glucose 16.7 mM

SMILES: CC#CC#CC#CC#CCCC(CO)O[C@@H]1O[C@H](CO)[C@@H](O)[C@H](O)[C@H]1O (stereo partly drawn) [cytopiloyne, 2-β-D-glucopyranosyloxy-1-hydroxytrideca-5,7,9,11-tetrayne]
- lipid accumulation (lipid droplets, Oil red O) (3T3-L1 cells): same basal level of lipid droplets as the control
- phosphorylation of PKCα (PKCα; cytopiloyne 7 μM): increased phosphorylation of PKCα
- translocation of PKCα from cytoplasm to membrane (PKCα; cytopiloyne 3, 7 and 14 μM): It was the case
- blood sugar control in prophylactic treatment (db/db mice): control blood sugar in these mice much better than the control
- prevention of T2D (db/db mice): failed to prevent the disease
- insulin secretion in β-cell line (HIT-T15 cells): stimulated insulin secretion
